Laboratory results reported in US7348425B2, “Inhibitors of HCV replication” (Bristol-Myers Squibb Company, priority 2004, dated 2008).

Assays:
[1] = tested on: HCV replicon; assay: HCV replicon FRET assay; assay type: cell-based; settings: Hepatitis C virus; FRET assay; read-out: EC50
Summary of the method: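 Replicon cells (± Renilla luciferase reporter) incubated with titrated compound at 37 °C; NS3 protease activity read by FRET peptide cleavage (20 uM EDANS/DABCYL substrate, 340/490 nm kinetic) or luciferase.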

[2] = target: T1, HCV NS5B RdRp genotype 1b (Hepatitis C virus genotype 1b, UniProt Q9WMX2); assay: Modified HCV NS5B RdRp enzyme assay (with preincubation); assay type: biochemical
T1 construct: The protein was expressed with an 18 amino acid C-terminal truncation to enhance the solubility; made in house; host or cells: E. coli BL21 (DE3), pET21a
Summary of the method: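 C-terminally truncated (Δ18) genotype 1b NS5B from E. coli was preincubated (14 nM) with compound, then reaction started with polyA template (0.2 nM), ³H-UTP (0.29 μM) and dT12 primer (20 nM) precaptured on SPA beads. Reaction ran 4 h at 30 °C in pH 7.5 Hepes buffer with 2% DMSO. IC50 came from seven concentrations.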

[3] = modified method (with preincubation)

T1 sequence (Q9WMX2 2420-2992): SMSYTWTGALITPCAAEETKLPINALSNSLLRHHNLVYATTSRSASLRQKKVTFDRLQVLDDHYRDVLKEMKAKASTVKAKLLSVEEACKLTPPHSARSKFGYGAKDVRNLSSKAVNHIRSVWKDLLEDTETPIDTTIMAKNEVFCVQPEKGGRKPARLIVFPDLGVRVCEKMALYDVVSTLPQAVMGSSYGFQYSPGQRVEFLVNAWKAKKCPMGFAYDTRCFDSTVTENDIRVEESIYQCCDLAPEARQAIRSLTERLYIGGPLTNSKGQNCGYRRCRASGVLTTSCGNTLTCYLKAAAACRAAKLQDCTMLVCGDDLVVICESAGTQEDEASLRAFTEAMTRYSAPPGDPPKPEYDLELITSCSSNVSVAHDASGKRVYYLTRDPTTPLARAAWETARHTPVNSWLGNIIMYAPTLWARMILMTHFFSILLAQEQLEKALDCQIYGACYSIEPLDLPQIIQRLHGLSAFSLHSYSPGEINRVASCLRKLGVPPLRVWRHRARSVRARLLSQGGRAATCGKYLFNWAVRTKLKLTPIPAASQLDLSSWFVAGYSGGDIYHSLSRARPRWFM

Structure (SMILES) | EC50 [1] | IC50 [2, 3] | IC50 ([2]; preincubation protocol)
CCOC(=O)/C=C/c1ccc(NC(=O)C2(NC(=O)c3ccc4c(C5CCCCC5)c5n(c4c3)CCCc3cc(O)ccc3-5)CCCC2)cc1 | 0.01 to 1 µM | > 1 µM | 
O=C(O)/C=C/c1ccc(NC(=O)C2(NC(=O)c3ccc4c(C5CCCCC5)c5n(c4c3)CCCc3cc(O)ccc3-5)CCCC2)cc1 | 0.01 to 1 µM | 0.02 to 1 µM | 
O=C1Cn2c(c(C3CCCCC3)c3ccc(C(=O)NC4(C(=O)Nc5ncc(-c6ccc(C(=O)O)cc6)s5)CCCC4)cc32)-c2ccccc2N1 | 0.01 to 1 µM | 0.02 to 1 µM | 
O=C1Cn2c(c(C3CCCCC3)c3ccc(C(=O)NC4(C(=O)Nc5nccs5)CCCC4)cc32)-c2ccccc2N1 | 0.01 to 1 µM | 0.02 to 1 µM | 
CN(C)CCNC(=O)C1=Cc2ccccc2-c2c(C3CCCCC3)c3ccc(C(=O)O)cc3n2C1 | 0.01 to 1 µM | 0.02 to 1 µM | 
O=C(O)/C=C/c1ccc(NC(=O)C2(NC(=O)c3ccc4c(C5CCCCC5)c5n(c4c3)CCCc3nccnc3-5)CCCC2)cc1 | < 0.1 µM | 0.02 to 1 µM | 
CN(C)CCNC(=O)C1=Cc2ccccc2-c2c(C3CCCCC3)c3ccc(C(=O)NC4(C(=O)Nc5ccc(/C=C/C(=O)O)cc5)CCCC4)cc3n2C1 | 0.01 to 1 µM | 0.02 to 1 µM | 
CCOC(=O)c1cc2cc(NC(=O)C3(NC(=O)c4ccc5c(C6CCCCC6)c6n(c5c4)CC(=O)Nc4ccccc4-6)CCCC3)ccc2n1C | 0.01 to 1 µM | 0.02 to 1 µM | 
CCN(CC)C(=O)C1=Cc2ccccc2-c2c(C3CCCCC3)c3ccc(C(=O)NS(=O)(=O)N(C)C)cc3n2C1 | 0.01 to 1 µM | 0.02 to 1 µM | 
COC(=O)C1=Cc2cc(OCc3ccccc3)ccc2-c2c(C3CCCCC3)c3ccc(C(=O)NS(=O)(=O)N(C)C)cc3n2C1 | 0.01 to 1 µM | 0.02 to 1 µM | 
CC1CN(C(=O)C2=Cc3ccccc3-c3c(C4CCCCC4)c4ccc(C(=O)NS(=O)(=O)N(C)C)cc4n3C2)CC(C)N1 (stereo not shown) | 0.01 to 1 µM | 0.02 to 1 µM | 
CN(CCO)C(=O)C1=Cc2ccccc2-c2c(C3CCCCC3)c3ccc(C(=O)NS(=O)(=O)N(C)C)cc3n2C1 | 0.01 to 1 µM | 0.02 to 1 µM | 
CN(C)C(=O)N1CCn2c(c(C3CCCCC3)c3ccc(C(=O)NS(=O)(=O)N(C)C)cc32)-c2ccccc21 | 0.01 to 1 µM | 0.02 to 1 µM | 
CC(=O)N1CCn2c(c(C3CCCCC3)c3ccc(C(=O)NS(=O)(=O)N(C)C)cc32)-c2ccccc21 | 0.01 to 1 µM | 0.02 to 1 µM | 
CCOC(=O)N1CCn2c(c(C3CCCCC3)c3ccc(C(=O)NS(=O)(=O)C4CC4)cc32)-c2ccccc21 | 0.01 to 1 µM | 0.02 to 1 µM | 
O=C(NS(=O)(=O)C1CC1)c1ccc2c(C3CCCCC3)c3n(c2c1)CCNc1ccccc1-3 | 0.01 to 1 µM | 0.02 to 1 µM | 
CS(=O)(=O)NC(=O)c1ccc2c(C3CCCCC3)c3n(c2c1)CCNc1ccccc1-3 | 0.01 to 1 µM | 0.02 to 1 µM | 
CC(C)(C)OC(=O)N1CCn2c(c(C3CCCCC3)c3ccc(C(=O)NS(C)(=O)=O)cc32)-c2ccccc21 | 0.01 to 1 µM | 0.02 to 1 µM | 
COc1ccc2c(c1)C=C(C(=O)N1CCOCC1)Cn1c-2c(C2CCCCC2)c2ccc(C(=O)NS(=O)(=O)C3CC3)cc21 | 0.05 to 1 µM |  | 0.01 to 1 µM

Structure (SMILES) | EC50 [1] | IC50 [2, 3] | IC50 ([2]; preincubation protocol)
COc1ccc2c(c1)CC(F)(C(=O)O)Cn1c-2c(C2CCCCC2)c2ccc(C(=O)NS(=O)(=O)N(C)C)cc21 (stereo not shown) | 1 to 10 µM |  | 0.01 to 1 µM
COc1ccc2c(c1)CC(F)(C(=O)N1C[C@@H](C)O[C@@H](C)C1)Cn1c-2c(C2CCCCC2)c2ccc(C(=O)NS(=O)(=O)N(C)C)cc21 (stereo partly shown) | 0.05 to 1 µM |  | 0.01 to 1 µM
CN(C)S(=O)(=O)NC(=O)c1ccc2c(C3CCCCC3)c3n(c2c1)CCCN(C(=O)OC(C)(C)C)c1ccccc1-3 | 0.05 to 1 µM |  | 0.01 to 1 µM
CN(C)S(=O)(=O)NC(=O)c1ccc2c(C3CCCCC3)c3n(c2c1)CCCNc1ccccc1-3 | 0.05 to 1 µM |  | 0.01 to 1 µM
COc1ccc2c(c1)C=C(C(=O)N1CC(C)NC(C)C1)Cn1c-2c(C2CCCCC2)c2ccc(C(=O)NS(=O)(=O)N(C)C)cc21 (stereo not shown) | 0.05 to 1 µM |  | 0.01 to 1 µM
COc1ccc2c(c1)C=C(C(=O)N1CC[C@@H](O)C1)Cn1c-2c(C2CCCCC2)c2ccc(C(=O)NS(=O)(=O)N(C)C)cc21 | 0.05 to 1 µM |  | 0.01 to 1 µM
COc1ccc2c(c1)C=C(C(=O)N1CCC[C@H](O)C1)Cn1c-2c(C2CCCCC2)c2ccc(C(=O)NS(=O)(=O)N(C)C)cc21 | 0.05 to 1 µM |  | 0.01 to 1 µM
O=C(O)c1ccc2c(C3CCCCC3)c3n(c2c1)C(C(=O)N1CCOCC1)CNc1ccccc1-3 (stereo not shown) | 1 to 10 µM |  | > 1 µM
COC(=O)c1ccc2c(C3CCCCC3)c3n(c2c1)CC(CO)=Cc1ccccc1-3 | 0.05 to 1 µM |  | > 1 µM
COc1ccc2c(c1)C=C(C(=O)N1[C@H](C)CC[C@H]1C)Cn1c-2c(C2CCCCC2)c2ccc(C(=O)NS(=O)(=O)N(C)C)cc21 | 0.05 to 1 µM |  | 0.01 to 1 µM
CCN(C)C(=O)C1=Cc2cc(OC)ccc2-c2c(C3CCCCC3)c3ccc(C(=O)NS(=O)(=O)N(C)C)cc3n2C1 | 0.05 to 1 µM |  | 0.01 to 1 µM
C[C@@H]1CN(C(=O)C2=Cc3ccccc3-c3c(C4CCCCC4)c4ccc(C(=O)NC5(C(=O)Nc6ccc(-c7cnco7)cc6)CCCC5)cc4n3C2)C[C@H](C)O1 | 0.05 to 1 µM |  | 0.01 to 1 µM
C[C@@H]1CN(C(=O)C2=Cc3ccccc3-c3c(C4CCCCC4)c4ccc(C(=O)NC5(C(=O)Nc6ccc(-n7cncn7)cc6)CCCC5)cc4n3C2)C[C@H](C)O1 | 0.05 to 1 µM |  | 0.01 to 1 µM
Cc1cc(CNC(=O)c2ccc3c(C4CCCCC4)c4n(c3c2)CC(C(=O)N2C[C@@H](C)O[C@@H](C)C2)=Cc2ccccc2-4)n[nH]1 | 0.05 to 1 µM |  | 0.01 to 1 µM
COc1ccc2c(c1)C=C(C(=O)N1CCOC(CN(C)C)C1)Cn1c-2c(C2CCCCC2)c2ccc(C(=O)NS(=O)(=O)N(C)C)cc21 (stereo not shown) | 0.05 to 1 µM |  | 0.01 to 1 µM
COc1ccc2c(c1)C=C(C(=O)N1CCC(O)CC1)Cn1c-2c(C2CCCCC2)c2ccc(C(=O)NS(=O)(=O)N(C)C)cc21 | 0.05 to 1 µM |  | 0.01 to 1 µM
COc1ccc2c(c1)C(=O)n1c-2c(C2CCCCC2)c2ccc(C(=O)NS(=O)(=O)N(C)C)cc21 | 1 to 10 µM |  | 0.01 to 1 µM
COC(=O)c1ccc2c(C3CCCCC3)c3n(c2c1)CC(C(=O)N1C[C@@H](C)O[C@@H](C)C1)=Cc1cc(F)ccc1-3 | 1 to 10 µM |  | > 1 µM
C[C@@H]1CN(C(=O)C2=Cc3cc(F)ccc3-c3c(C4CCCCC4)c4ccc(C(=O)O)cc4n3C2)C[C@H](C)O1 | 0.05 to 1 µM |  | 0.01 to 1 µM

Structure (SMILES) | EC50 [1] | IC50 [2, 3] | IC50 ([2]; preincubation protocol)
C[C@@H]1CN(C(=O)C2=Cc3cc(F)ccc3-c3c(C4CCCCC4)c4ccc(C(=O)NS(=O)(=O)N(C)C)cc4n3C2)C[C@H](C)O1 | 0.05 to 1 µM |  | 0.01 to 1 µM
COC(=O)c1ccc2c(C3CCCCC3)c3n(c2c1)CC(C(=O)N1C[C@@H](C)N[C@@H](C)C1)=Cc1cc(F)ccc1-3 | 1 to 10 µM |  | 0.01 to 1 µM
C[C@@H]1CN(C(=O)C2=Cc3cc(F)ccc3-c3c(C4CCCCC4)c4ccc(C(=O)O)cc4n3C2)C[C@H](C)N1 | 0.05 to 1 µM |  | 0.01 to 1 µM
COC(=O)c1ccc2c(C3CCCCC3)c3n(c2c1)C(C(=O)N1CCOCC1)CCc1ccccc1-3 (stereo not shown) | 0.05 to 1 µM |  | > 12.5 µM
C[C@@H]1CN(C(=O)C2=Cc3ccccc3-c3c(C4CCCCC4)c4ccc(C(=O)NC5(C(=O)Nc6ncc(-c7ccc(C(=O)O)cc7)s6)CCCC5)cc4n3C2)C[C@H](C)O1 | 0.05 to 1 µM |  | 0.01 to 1 µM
C[C@@H]1CN(C(=O)C2=Cc3ccccc3-c3c(C4CCCCC4)c4ccc(C(=O)NC5(C(=O)Nc6nccs6)CCCC5)cc4n3C2)C[C@H](C)O1 | 0.05 to 1 µM |  | 0.01 to 1 µM
O=C(O)c1ccc2c(C3CCCCC3)c3n(c2c1)C(C(=O)N1CCOCC1)CCc1ccccc1-3 (stereo not shown) | > 3.3 µM |  | > 12.5 µM
COc1ccc2c(c1)C=C(C(=O)N(C)CCO)Cn1c-2c(C2CCCCC2)c2ccc(C(=O)NS(=O)(=O)N(C)C)cc21 | 0.05 to 1 µM |  | < 0.02 µM
COc1ccc2c(c1)C=C(C(=O)N(CCO)CCO)Cn1c-2c(C2CCCCC2)c2ccc(C(=O)NS(=O)(=O)N(C)C)cc21 | 0.05 to 1 µM |  | < 0.02 µM
C[C@@H]1CN(C(=O)C2=Cc3ccccc3-c3c(C4CCCCC4)c4ccc(C(=O)NC5(C(=O)O)CCCC5)cc4n3C2)C[C@H](C)O1 | 0.05 to 1 µM |  | 0.01 to 1 µM
COc1ccc2c(c1)CC(C(=O)N1C[C@@H](C)N[C@@H](C)C1)Cn1c-2c(C2CCCCC2)c2ccc(C(=O)NS(=O)(=O)N(C)C)cc21 (stereo partly shown) | 0.05 to 1 µM |  | 0.01 to 1 µM
C[C@@H]1CN(C(=O)C2=Cc3cc(F)ccc3-c3c(C4CCCCC4)c4ccc(C(=O)NS(=O)(=O)N(C)C)cc4n3C2)C[C@H](C)N1 | 0.05 to 1 µM |  | 0.01 to 1 µM
COc1ccc2c(c1)CC(C(=O)N(CCO)CCO)Cn1c-2c(C2CCCCC2)c2ccc(C(=O)NS(=O)(=O)N(C)C)cc21 (stereo not shown) | 0.05 to 1 µM |  | 0.01 to 1 µM
COc1ccc2c(c1)CC(C(=O)N(C)CCO)Cn1c-2c(C2CCCCC2)c2ccc(C(=O)NS(=O)(=O)N(C)C)cc21 (stereo not shown) | 0.05 to 1 µM |  | 0.01 to 1 µM
CNS(=O)(=O)NC(=O)c1ccc2c(C3CCCCC3)c3n(c2c1)CC(C(=O)N1C[C@@H](C)O[C@@H](C)C1)=Cc1cc(F)ccc1-3 | 0.05 to 1 µM |  | 0.01 to 1 µM
CNCCNC(=O)c1ccc2c(C3CCCCC3)c3n(c2c1)CC(C(=O)N1C[C@@H](C)O[C@@H](C)C1)=Cc1ccccc1-3 | 0.05 to 1 µM |  | 0.01 to 1 µM
COc1ccc2c(c1O)C(O)n1c-2c(C2CCCCC2)c2ccc(C(=O)NS(=O)(=O)N(C)C)cc21 (stereo not shown) | > 0.1 µM |  | 1 to 10 µM
COc1cc2c(cn1)-c1c(C3CCCCC3)c3ccc(C(=O)NS(=O)(=O)N(C)C)cc3n1CC(C(=O)N1C[C@@H](C)O[C@@H](C)C1)=C2 | > 1 µM |  | 1 to 10 µM
